Data on three compounds can be found in ChEMBL document CHEMBL4616698, “Scaffold Repurposing of in-House Chemical Library toward the Identification of New Casein Kinase 1 δ Inhibitors” (ACS Med Chem Lett, 2020).

By IC50 is commonly meant the point on the concentration scale where inhibition reaches its midpoint.

Assay [1] addresses Casein kinase I isoform delta (Homo sapiens, UniProt P48730). The assay is described as follows: Inhibition of full length recombinant human GST-tagged CSNK1D expressed in baculovirus expression system using casein as substrate incubated for 10 mins in presence of ATP by KinaseGlo luminescence assay. In general terms: In Kinase-Glo more light means more ATP remaining.
Assay [2] has as its target Casein kinase 1, delta tv1 (Sus scrofa, UniProt M3VH47). The assay is described as follows: Inhibition of porcine brain CK-1delta using RRKHAAIGpSAYSITA peptide as substrate incubated for 30 mins in presence of [gamma-33P]-ATP by scintillation counting method.

Casein kinase I isoform delta, sequence (P48730 whole entry, canonical isoform): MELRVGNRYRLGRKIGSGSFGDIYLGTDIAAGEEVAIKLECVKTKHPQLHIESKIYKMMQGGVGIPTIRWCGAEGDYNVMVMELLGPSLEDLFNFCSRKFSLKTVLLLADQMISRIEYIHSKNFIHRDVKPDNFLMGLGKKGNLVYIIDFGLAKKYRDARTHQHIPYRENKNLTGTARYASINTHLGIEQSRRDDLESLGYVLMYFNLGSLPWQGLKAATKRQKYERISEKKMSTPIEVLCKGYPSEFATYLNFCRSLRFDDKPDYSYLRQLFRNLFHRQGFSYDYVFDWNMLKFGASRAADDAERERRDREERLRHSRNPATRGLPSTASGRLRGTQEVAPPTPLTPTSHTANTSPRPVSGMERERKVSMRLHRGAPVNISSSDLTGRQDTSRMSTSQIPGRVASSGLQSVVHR
Casein kinase 1, delta tv1, sequence (M3VH47 whole entry): as the sequence (P48730 whole entry, canonical isoform) above, with V340A, P401A, S406A, V412A counted along it

In the case of `Oc1cc(-c2cccc(Br)c2)nc2ccc3[nH]ccc3c12`, the IC50 in assay [1] is 13 µM. In the case of `CCn1ccc2c3c(=O)cc(-c4cccc5ccccc45)[nH]c3ccc21`, the IC50 in assay [1] was found to be 15.2 µM.

Consider `Nc1nccc(-c2c(-c3ccc(F)cc3)ncn2C2CCCCC2)n1`, for which the half-maximal inhibitory concentration (IC50) in assay [2] was determined as 0.0077 µM.
